Test results taken from paper PMC6691587, “New CXCR1/CXCR2 inhibitors represent an effective treatment for kidney or head and neck cancers sensitive or refractory to reference treatments” (Theranostics, 2019).

Tested on: K562
Test: XTT cell viability assay, K562 CML cells
Type: cell-based, human
Details: 48 h, SD 10%, mean of three experiments
Procedure: (§1) Fifty microliters of sodium 3′-[1-phenylaminocarbonyl)-3,4-tetrazolium]-bis(4-methoxy-6-nitro) benzene sulfonic acid hydrate (XTT) reagent was added to each well. The assay is based on the cleavage of the yellow tetrazolium salt XTT to form an orange formazan dye by metabolically active cells. This bio-reduction occurs in viable cells only and is related to NAD(P)H production through glycolysis. Therefore, the amount of formazan dye measured at 490 nm directly correlated with the number of metabolically active cells reflecting cell proliferation and viability. Each assay was performed in quadruplicate.

Structure (SMILES)	IC50 [µM]
O=C(Nc1ccc([N+](=O)[O-])cc1O)Nc1ccccc1Br [SB225002, reference compound]	> 100

Same assay, conditions: Homo sapiens, K562, 48 h, SD 10%, mean of three experiments

Structure (SMILES)	IC50 [µM]
O=C(Nc1cccc(Cl)c1)Nc1cccc(Cl)c1 [C9]	10
O=C(Nc1ccc(Cl)cc1)Nc1ccccc1O [C12]	25
O=C(Nc1ccc(Cl)cc1)Nc1nc2ccccc2[nH]1 [C16]	12
O=C(Nc1ccccc1)Nc1nc2ccccc2o1 [C18]	> 25
S=C(Nc1ccccc1)Nc1nc2ccccc2o1 [C19]	> 25

Tested on: Molm14
Test: XTT cell viability assay, Molm14 AML cells
Type: cell-based, human
Details: 48 h, SD 10%, mean of three experiments, read-out: IC50 14 (AML)
Procedure: as §1

Structure (SMILES)	IC50 [µM]
O=C(Nc1ccc([N+](=O)[O-])cc1O)Nc1ccccc1Br [SB225002, reference compound]	90

Same assay, conditions: Homo sapiens, MOLM-14, 48 h, SD 10%, mean of three experiments

Structure (SMILES)	IC50 [µM]
O=C(Nc1cccc(Cl)c1)Nc1cccc(Cl)c1 [C9]	20
O=C(Nc1ccc(Cl)cc1)Nc1ccccc1O [C12]	15
O=C(Nc1ccc(Cl)cc1)Nc1nc2ccccc2[nH]1 [C16]	20
O=C(Nc1ccccc1)Nc1nc2ccccc2o1 [C18]	> 25
S=C(Nc1ccccc1)Nc1nc2ccccc2o1 [C19]	> 25

Tested on: OCI-AML3
Test: XTT cell viability assay, OCI-AML3 AML cells
Type: cell-based, human
Details: 48 h, SD 10%, mean of three experiments, read-out: IC50 L3 (AML)
Procedure: as §1

Structure (SMILES)	IC50 [µM]
O=C(Nc1ccc([N+](=O)[O-])cc1O)Nc1ccccc1Br [SB225002, reference compound]	90

Same assay, conditions: Homo sapiens, OCI-AML-3, 48 h, SD 10%, mean of three experiments, read-out: IC50 L3 (AML)

Structure (SMILES)	IC50 [µM]
O=C(Nc1cccc(Cl)c1)Nc1cccc(Cl)c1 [C9]	> 25
O=C(Nc1ccc(Cl)cc1)Nc1ccccc1O [C12]	25
O=C(Nc1ccc(Cl)cc1)Nc1nc2ccccc2[nH]1 [C16]	22
O=C(Nc1ccccc1)Nc1nc2ccccc2o1 [C18]	> 25
S=C(Nc1ccccc1)Nc1nc2ccccc2o1 [C19]	> 25

Tested on: panel of human tumor cell lines
Test: XTT screening on a panel of tumor cell lines
Type: cell-based
Details: 786, 786R, CAL27, CAL27R (Figure S7); compared to C29
Procedure: as §1

Structure (SMILES)	effect on RCC and HNSCC cells
O=C(Nc1ccc([N+](=O)[O-])cc1O)Nc1ccccc1Br [SB225002, reference compound]	modest effect

Same assay, conditions: Homo sapiens; read-out: IC50 for solid tumors (breast and kidney)

Structure (SMILES)	IC50 [µM]
O=C(Nc1cccc(Cl)c1)Nc1cccc(Cl)c1 [C9]	10 to 20
O=C(Nc1ccc(Cl)cc1)Nc1ccccc1O [C12]	10 to 20

Same assay, conditions: Homo sapiens; read-out: IC50 values for several cancer cell lines

Structure (SMILES)	IC50 [µM]
O=C(Nc1ccc(Cl)cc1)Nc1nc2ccccc2[nH]1 [C16]	< 20

Same assay, conditions: in words

Structure (SMILES)	anti-proliferation/survival activity on malignant cells
O=C(Nc1ccccc1)Nc1nc2ccccc2o1 [C18]	did not give anti-proliferation/survival activity
S=C(Nc1ccccc1)Nc1nc2ccccc2o1 [C19]	did not give anti-proliferation/survival activity

Tested on: Molm13
Test: XTT cell viability assay, Molm13 AML cells
Type: cell-based, human
Details: 48 h, SD 10%, mean of three experiments, read-out: IC50 13 (AML)
Procedure: as §1

Structure (SMILES)	IC50 [µM]
O=C(Nc1ccc([N+](=O)[O-])cc1O)Nc1ccccc1Br [SB225002, reference compound]	> 100

Same assay, conditions: Homo sapiens, MOLM-13, 48 h, SD 10%, mean of three experiments

Structure (SMILES)	IC50 [µM]
O=C(Nc1cccc(Cl)c1)Nc1cccc(Cl)c1 [C9]	> 25
O=C(Nc1ccc(Cl)cc1)Nc1ccccc1O [C12]	> 25
O=C(Nc1ccc(Cl)cc1)Nc1nc2ccccc2[nH]1 [C16]	> 25
O=C(Nc1ccccc1)Nc1nc2ccccc2o1 [C18]	> 25
S=C(Nc1ccccc1)Nc1nc2ccccc2o1 [C19]	> 25

Tested on: CAL27
Test: XTT cell viability assay, CAL27 HNSCC cells
Type: cell-based, human
Details: Homo sapiens, CAL-27; XTT assay, 48 h; SD 10%; mean of three experiments; read-out: IC50 27 (HNSCC)
Procedure: as §1

Structure (SMILES)	IC50 [µM]
O=C(Nc1cccc(Cl)c1)Nc1cccc(Cl)c1 [C9]	12
O=C(Nc1ccc(Cl)cc1)Nc1ccccc1O [C12]	12
O=C(Nc1ccc(Cl)cc1)Nc1nc2ccccc2[nH]1 [C16]	15
O=C(Nc1ccccc1)Nc1nc2ccccc2o1 [C18]	> 25
S=C(Nc1ccccc1)Nc1nc2ccccc2o1 [C19]	> 25

Same assay, conditions: XTT assay, 48 h; SD 10%; mean of three experiments; read-out: IC50 27 (HNSCC)

Structure (SMILES)	IC50 [µM]
O=C(Nc1ccc([N+](=O)[O-])cc1O)Nc1ccccc1Br [SB225002, reference compound]	100

Tested on: OCI-AML2
Test: XTT cell viability assay, OCI-AML2 AML cells
Type: cell-based, human
Details: 48 h, SD 10%, mean of three experiments, read-out: IC50 L2 (AML)
Procedure: as §1

Structure (SMILES)	IC50 [µM]
O=C(Nc1ccc([N+](=O)[O-])cc1O)Nc1ccccc1Br [SB225002, reference compound]	> 100

Same assay, conditions: Homo sapiens, OCI-AML2, 48 h, SD 10%, mean of three experiments, read-out: IC50 L2 (AML)

Structure (SMILES)	IC50 [µM]
O=C(Nc1cccc(Cl)c1)Nc1cccc(Cl)c1 [C9]	20
O=C(Nc1ccc(Cl)cc1)Nc1ccccc1O [C12]	15
O=C(Nc1ccc(Cl)cc1)Nc1nc2ccccc2[nH]1 [C16]	20
O=C(Nc1ccccc1)Nc1nc2ccccc2o1 [C18]	> 25
S=C(Nc1ccccc1)Nc1nc2ccccc2o1 [C19]	> 25

Tested on: SKM1
Test: XTT cell viability assay, SKM1 MDS cells
Type: cell-based, human
Details: 48 h, SD 10%, mean of three experiments, read-out: IC50 SK (MDS)
Procedure: as §1

Structure (SMILES)	IC50 [µM]
O=C(Nc1ccc([N+](=O)[O-])cc1O)Nc1ccccc1Br [SB225002, reference compound]	> 100

Same assay, conditions: Homo sapiens, SKM-1, 48 h, SD 10%, mean of three experiments, read-out: IC50 SK (MDS)

Structure (SMILES)	IC50 [µM]
O=C(Nc1cccc(Cl)c1)Nc1cccc(Cl)c1 [C9]	> 25
O=C(Nc1ccc(Cl)cc1)Nc1ccccc1O [C12]	> 25
O=C(Nc1ccc(Cl)cc1)Nc1nc2ccccc2[nH]1 [C16]	> 25
O=C(Nc1ccccc1)Nc1nc2ccccc2o1 [C18]	> 25
S=C(Nc1ccccc1)Nc1nc2ccccc2o1 [C19]	> 25

Tested on: A498
Test: XTT cell viability assay, A498 RCC cells
Type: cell-based, human
Details: Homo sapiens, A498; XTT assay, 48 h; SD 10%; mean of three experiments; read-out: IC50 498 (Kidney RCC)
Procedure: as §1

Structure (SMILES)	IC50 [µM]
O=C(Nc1cccc(Cl)c1)Nc1cccc(Cl)c1 [C9]	10
O=C(Nc1ccc(Cl)cc1)Nc1ccccc1O [C12]	10
O=C(Nc1ccc(Cl)cc1)Nc1nc2ccccc2[nH]1 [C16]	9
O=C(Nc1ccccc1)Nc1nc2ccccc2o1 [C18]	> 25
S=C(Nc1ccccc1)Nc1nc2ccccc2o1 [C19]	> 25

Same assay, conditions: XTT assay, 48 h; SD 10%; mean of three experiments; read-out: IC50 498 (Kidney RCC)

Structure (SMILES)	IC50 [µM]
O=C(Nc1ccc([N+](=O)[O-])cc1O)Nc1ccccc1Br [SB225002, reference compound]	70

Tested on: CAL33
Test: XTT cell viability assay, CAL33 HNSCC cells
Type: cell-based, human
Details: Homo sapiens, CAL-33; XTT assay, 48 h; SD 10%; mean of three experiments; read-out: IC50 33 (HNSCC)
Procedure: as §1

Structure (SMILES)	IC50 [µM]
O=C(Nc1cccc(Cl)c1)Nc1cccc(Cl)c1 [C9]	10
O=C(Nc1ccc(Cl)cc1)Nc1ccccc1O [C12]	10
O=C(Nc1ccc(Cl)cc1)Nc1nc2ccccc2[nH]1 [C16]	15
O=C(Nc1ccccc1)Nc1nc2ccccc2o1 [C18]	> 25
S=C(Nc1ccccc1)Nc1nc2ccccc2o1 [C19]	> 25

Same assay, conditions: XTT assay, 48 h; SD 10%; mean of three experiments; read-out: IC50 33 (HNSCC)

Structure (SMILES)	IC50 [µM]
O=C(Nc1ccc([N+](=O)[O-])cc1O)Nc1ccccc1Br [SB225002, reference compound]	80

Tested on: 786-O
Test: XTT cell viability assay, 786-O RCC cells
Type: cell-based, human
Details: Homo sapiens, 786-0; XTT assay, 48 h; SD 10%; mean of three experiments; read-out: IC50 786 (Kidney RCC)
Procedure: as §1

Structure (SMILES)	IC50 [µM]
O=C(Nc1cccc(Cl)c1)Nc1cccc(Cl)c1 [C9]	15
O=C(Nc1ccc(Cl)cc1)Nc1ccccc1O [C12]	15
O=C(Nc1ccc(Cl)cc1)Nc1nc2ccccc2[nH]1 [C16]	20
O=C(Nc1ccccc1)Nc1nc2ccccc2o1 [C18]	> 25
S=C(Nc1ccccc1)Nc1nc2ccccc2o1 [C19]	> 25

Same assay, conditions: XTT assay, 48 h; SD 10%; mean of three experiments; read-out: IC50 786 (Kidney RCC)

Structure (SMILES)	IC50 [µM]
O=C(Nc1ccc([N+](=O)[O-])cc1O)Nc1ccccc1Br [SB225002, reference compound]	100

Tested on: MDA-MD-231
Test: XTT cell viability assay, breast cancer cells
Type: cell-based, human
Details: 48 h, SD 10%, mean of three experiments
Procedure: as §1

Structure (SMILES)	IC50 [µM]
O=C(Nc1ccc([N+](=O)[O-])cc1O)Nc1ccccc1Br [SB225002, reference compound]	100

Same assay, conditions: Homo sapiens, 48 h, SD 10%, mean of three experiments

Structure (SMILES)	IC50 [µM]
O=C(Nc1cccc(Cl)c1)Nc1cccc(Cl)c1 [C9]	15
O=C(Nc1ccc(Cl)cc1)Nc1ccccc1O [C12]	12
O=C(Nc1ccc(Cl)cc1)Nc1nc2ccccc2[nH]1 [C16]	20
O=C(Nc1ccccc1)Nc1nc2ccccc2o1 [C18]	> 25
S=C(Nc1ccccc1)Nc1nc2ccccc2o1 [C19]	> 25

Tested on: RCC4
Test: XTT cell viability assay, RCC4 RCC cells
Type: cell-based, human
Details: 48 h, SD 10%, mean of three experiments, read-out: IC50 R4 (Kidney RCC)
Procedure: as §1

Structure (SMILES)	IC50 [µM]
O=C(Nc1ccc([N+](=O)[O-])cc1O)Nc1ccccc1Br [SB225002, reference compound]	100

Same assay, conditions: Homo sapiens, RCC4, 48 h, SD 10%, mean of three experiments, read-out: IC50 R4 (Kidney RCC)

Structure (SMILES)	IC50 [µM]
O=C(Nc1cccc(Cl)c1)Nc1cccc(Cl)c1 [C9]	15
O=C(Nc1ccc(Cl)cc1)Nc1ccccc1O [C12]	15
O=C(Nc1ccc(Cl)cc1)Nc1nc2ccccc2[nH]1 [C16]	20
O=C(Nc1ccccc1)Nc1nc2ccccc2o1 [C18]	> 25
S=C(Nc1ccccc1)Nc1nc2ccccc2o1 [C19]	> 25
